Columns and labels:
Type in all cases: cell-based
HBD-3 = HBD-3 ELISA, dose response in Neonatal Human Epidermal Keratinocytes; details: for HBD-3: NHEK, overnight (16 hours); for increase in HBD-3 production and/or activity: vs control culture medium
Procedure: (§1) To determine the optimal dose of active ingredient, test dose response studies were run using both Decorinyl® and Pamitoyl Pentapeptided-3. These test dose response studies were commissioned to determine the concentration of HBD-3 at various levels of the active ingredients. Neonatal Human Epidermal Keratinocytes (NHEK; Life Technology, Grand Island, N.Y., USA) were cultured with keratinocyte growth medium (KGM, Medium 154: M-154-500 Life Technology with supplements S-001, Life Technologies). NHEK were seeded into 96-well plates at a density of 10000 cells in 200 μl medium per well. After 48 hours, the cells were incubated with varying concentrations of each ingredient solution in a culture medium (KGM) overnight (16 hours) at 37° C., 5% CO2 and 95% humidity at four replicates for each concentration. Each of these active ingredients was tested at the following weight percents based on the weight of the total culture: 0.02 wt. %, 0.05 wt. %, 0.1 wt. %, 0.2 wt. %, 0.5 wt. %, 1.0 wt. %, 2.0 wt. %. Each of these compositions was compared to a control culture medium.
(§2) HBD-3 was detected using HBD-3 ELISA developing kits (commercially available from Peprotech). ELISA were performed according to the manufactory instructions of each kit by adding 100 μl/well of culture medium after overnight treatment. The substrate of ELISA reaction was using the substrate reagent from R&D Systems (DY999), and the reactions were stopped by adding 50 μl of 1N H2SO4 in each well. The results were measured using a colorimeter, absorbance was measured at 450 nanometers (nm) within 30 minutes. Wavelength correction was set to 570 nm. The concentration of each sample was calculated using ELISA standard curve.

HBD-1 = HBD-1 ELISA, dose response in Neonatal Human Epidermal Keratinocytes; details: for HBD-1: NHEK, overnight (16 hours); for increase in HBD-1 production and/or activity: vs control culture medium
Procedure: as §1, with “HBD-1” for “HBD-3”
as §2, with “HBD-1 was detected” for “HBD-3 was detected”, “detected using HBD-1 ELISA (enzyme-linked” for “detected using HBD-3 ELISA developing”, “HBD-1 ELISA (enzyme-linked immunosorbent assay) developing kits” for “HBD-3 ELISA developing kits”

HBD-2 = HBD-2 ELISA, dose response in Neonatal Human Epidermal Keratinocytes; details: for HBD-2: NHEK, overnight (16 hours)
Procedure: as §1, with “of HBD-2” for “of HBD-3”, “ingredients were” for “ingredients was”
as §2, with “HBD-2” for “HBD-3”

## palmitoyl pentapeptide-3 [Pamitoyl Pentapeptided-3]
HBD-3; 0.02% active ingredient
  HBD-3: 288 pg/mL
HBD-3; 0.05% active ingredient
  HBD-3: 242 pg/mL
HBD-3; 0.1% active ingredient
  HBD-3: 387 pg/mL
HBD-3; 0.2% active ingredient
  HBD-3: 775 pg/mL
HBD-3; 0.5% active ingredient
  HBD-3: 2278 pg/mL
HBD-3; 1% active ingredient
  HBD-3: 4783 pg/mL
HBD-3; 1.0 wt. %
  increase in HBD-3 production and/or activity: 1005%
HBD-3; 2% active ingredient
  HBD-3: 8617 pg/mL
HBD-3; 2.0 wt. %
  increase in HBD-3 production and/or activity: 1890%
HBD-1; 0.02% active ingredient
  HBD-1: 59 pg/mL
HBD-1; 0.05% active ingredient
  HBD-1: 57 pg/mL
HBD-1; 0.1% active ingredient
  HBD-1: 64 pg/mL
HBD-1; 0.2% active ingredient
  HBD-1: 85 pg/mL
HBD-1; 0.5% active ingredient
  HBD-1: 162 pg/mL
HBD-1; 1% active ingredient
  HBD-1: 259 pg/mL
HBD-1; 1.0 wt. %
  increase in HBD-1 production and/or activity: 311%
HBD-1; 2% active ingredient
  HBD-1: 1047 pg/mL
HBD-1; 2.0 wt. %
  increase in HBD-1 production and/or activity: 1561%
HBD-2; 0.02% active ingredient
  HBD-2: 9 pg/mL
HBD-2; 0.05% active ingredient
  HBD-2: 8 pg/mL
HBD-2; 0.1% active ingredient
  HBD-2: 9 pg/mL
HBD-2; 0.2% active ingredient
  HBD-2: 14 pg/mL
HBD-2; 0.5% active ingredient
  HBD-2: 21 pg/mL
HBD-2; 1% active ingredient
  HBD-2: 72 pg/mL
HBD-2; 2% active ingredient
  HBD-2: 203 pg/mL
HBD-2; 2.0 wt. %, vs control culture medium
  increase in HBD-2 production and/or activity: 2800%

— patent publication US20180140545A1, “ANTIMICROBIAL PEPTIDE STIMULATING SANITIZING COMPOSITION” (GOJO Industries, Inc., priority 2016, published 2018)
